Laboratory results reported in PMC5679017 (Journal of medicinal chemistry, 2016).

Key:
melanocortin receptors = settings: cited from earlier work
mice [1] = settings: 2 nmol dose; 3, 4, 5, 6, 16 and 24 hours after administration; cited from earlier work
mice [2] = test: Cannula placement validation with hPYY, food intake; type: in vivo, mouse; settings: 2.5 μg human PYY3-36, validated cannulated mice (saline: 0.42 ±0.07 g)

| Compound | binding affinity at the melanocortin receptors (reported) (melanocortin receptors) | food intake after ICV administration (previous study) (mice [1]) | food eaten four hours after administration (mice [2]) [g] |
| --- | --- | --- | --- |
| CC(=O)N[C@@H](Cc1c[nH]cn1)C(=O)N[C@H](Cc1ccccc1)C(=O)N[C@@H](CCCNC(=N)N)C(=O)N[C@@H](Cc1c[nH]c2ccccc12)C(N)=O [Compound 1, Ac-His-DPhe-Arg-Trp-NH2] | high nanomolar to low micromolar | decrease food intake | – |
| hPYY: human PYY3-36 (Bachem) used to verify cannula placement | – | – | 1.79 ± 0.13 |
